The record followed here is ChEMBL document CHEMBL1201862, “PubChem BioAssay data set” (2004).

The source made the active and inactive calls.

Assay [1] concerns the target T1, RNA-binding protein pos-1 (Caenorhabditis elegans, UniProt G5EF15).
T1 sequence (G5EF15 whole entry): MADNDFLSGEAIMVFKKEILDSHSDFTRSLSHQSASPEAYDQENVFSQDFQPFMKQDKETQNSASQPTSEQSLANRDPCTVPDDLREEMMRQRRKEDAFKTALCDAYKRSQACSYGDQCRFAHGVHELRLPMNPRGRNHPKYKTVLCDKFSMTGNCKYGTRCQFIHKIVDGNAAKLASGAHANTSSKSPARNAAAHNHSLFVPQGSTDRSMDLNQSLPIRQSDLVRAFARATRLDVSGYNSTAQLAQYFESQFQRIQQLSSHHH
The assay can be described thus: inhibitors of POS-1/mex-3 RNA binding, dose response, biochemical, fluorescence polarization (AID 1964).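 Note: purified POS-1 fused to maltose binding protein made in E. coli; potency of compounds blocking POS-1 binding to fluorescent RNA.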

For a further assay, the target named is T2, Cysteine protease ATG4B (Homo sapiens, UniProt Q9Y4P1).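 Note: Fluorescence-based dose-response confirmation assay measuring inhibition of ATG4B activity.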
T2 sequence (Q9Y4P1 whole entry): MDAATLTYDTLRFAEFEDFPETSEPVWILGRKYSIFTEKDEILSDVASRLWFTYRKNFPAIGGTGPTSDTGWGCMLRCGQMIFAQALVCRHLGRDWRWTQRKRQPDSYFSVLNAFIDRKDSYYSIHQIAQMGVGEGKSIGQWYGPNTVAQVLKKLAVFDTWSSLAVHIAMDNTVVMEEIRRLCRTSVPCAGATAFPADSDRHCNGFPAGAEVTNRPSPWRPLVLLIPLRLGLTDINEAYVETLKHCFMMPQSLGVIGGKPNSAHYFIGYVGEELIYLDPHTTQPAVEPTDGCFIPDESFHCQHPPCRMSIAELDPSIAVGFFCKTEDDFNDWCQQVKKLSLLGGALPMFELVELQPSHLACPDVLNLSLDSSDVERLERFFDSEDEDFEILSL
It counts as functional.

Another assay has as its target Phospholipase A2 (Homo sapiens, UniProt P04054). It counts as functional.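 Note: confirmatory dose-response counterscreen on phospholipase A2, testing hits that came from an ultra-high-throughput screen for ATG4B inhibitors.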
Assay [2] deals with T3, Heat shock factor protein 1 (Mus musculus, UniProt P38532).
T3 sequence (P38532 whole entry): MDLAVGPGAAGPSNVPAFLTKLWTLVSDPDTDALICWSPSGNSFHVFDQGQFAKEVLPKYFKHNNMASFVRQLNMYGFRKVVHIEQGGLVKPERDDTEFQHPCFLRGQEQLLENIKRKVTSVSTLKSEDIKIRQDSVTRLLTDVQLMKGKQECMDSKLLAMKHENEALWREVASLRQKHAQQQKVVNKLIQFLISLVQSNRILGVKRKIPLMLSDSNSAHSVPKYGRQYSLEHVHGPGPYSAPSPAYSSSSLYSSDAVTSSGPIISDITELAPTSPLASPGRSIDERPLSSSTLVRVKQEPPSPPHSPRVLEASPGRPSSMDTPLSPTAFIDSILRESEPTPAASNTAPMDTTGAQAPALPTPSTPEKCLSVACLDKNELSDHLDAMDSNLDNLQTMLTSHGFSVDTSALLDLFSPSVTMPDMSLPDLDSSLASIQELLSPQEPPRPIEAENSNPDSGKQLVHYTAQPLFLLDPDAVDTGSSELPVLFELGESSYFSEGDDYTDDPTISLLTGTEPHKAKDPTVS
The assay can be described thus: inhibition of MG132-induced HSE-luciferase signal, confirmation, cell-based, NIH3T3, luminescence, dose retest (AID 2382).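 Note: NIH3T3 fibroblasts with HSF1-driven luciferase reporter stressed by proteasome inhibitor MG132; luminescence from HSF1-driven luciferase expression after 8 hours of MG132 stress.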 It counts as functional.

A further assay has as its system CHO. The assay can be described thus: cytotoxicity in TLR9-MyD88 CHO cells, dose response, cytotoxicity control for TLR9-MyD88 binding inhibitor project, cell-based, luminescence (AID 588339).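 Note: CHO cells stably coexpressing TLR9 and MyD88 fusions from primary screen; compound exposure lasted 48 hours before viability readout.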 It counts as functional, hamster. The settings on record: Cricetulus griseus.
Assay [3] is described as follows: HepG2 cell cytotoxicity, dose response, cytotoxicity control for Shn3 inhibitor project, CellTiter-Glo, cherry-picked (AID 624134). In kind it is functional, cell-based. A general note: ATP-based viability assays read luminescence as a measure of living cells.
The target in the next assay is Fatty acid synthase (Homo sapiens, UniProt P49327). The assay is described as follows: FAS thioesterase domain inhibitors, dose response, biochemical, endpoint fluorescence intensity, uHTS hits (AID 624327).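 Note: fluorescence from hydrolysis of an O-methyl fluorescein acyl ester substrate by the enzyme.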 It counts as functional.
Chain of Fatty acid synthase (P49327 whole entry, the tested form may be a part): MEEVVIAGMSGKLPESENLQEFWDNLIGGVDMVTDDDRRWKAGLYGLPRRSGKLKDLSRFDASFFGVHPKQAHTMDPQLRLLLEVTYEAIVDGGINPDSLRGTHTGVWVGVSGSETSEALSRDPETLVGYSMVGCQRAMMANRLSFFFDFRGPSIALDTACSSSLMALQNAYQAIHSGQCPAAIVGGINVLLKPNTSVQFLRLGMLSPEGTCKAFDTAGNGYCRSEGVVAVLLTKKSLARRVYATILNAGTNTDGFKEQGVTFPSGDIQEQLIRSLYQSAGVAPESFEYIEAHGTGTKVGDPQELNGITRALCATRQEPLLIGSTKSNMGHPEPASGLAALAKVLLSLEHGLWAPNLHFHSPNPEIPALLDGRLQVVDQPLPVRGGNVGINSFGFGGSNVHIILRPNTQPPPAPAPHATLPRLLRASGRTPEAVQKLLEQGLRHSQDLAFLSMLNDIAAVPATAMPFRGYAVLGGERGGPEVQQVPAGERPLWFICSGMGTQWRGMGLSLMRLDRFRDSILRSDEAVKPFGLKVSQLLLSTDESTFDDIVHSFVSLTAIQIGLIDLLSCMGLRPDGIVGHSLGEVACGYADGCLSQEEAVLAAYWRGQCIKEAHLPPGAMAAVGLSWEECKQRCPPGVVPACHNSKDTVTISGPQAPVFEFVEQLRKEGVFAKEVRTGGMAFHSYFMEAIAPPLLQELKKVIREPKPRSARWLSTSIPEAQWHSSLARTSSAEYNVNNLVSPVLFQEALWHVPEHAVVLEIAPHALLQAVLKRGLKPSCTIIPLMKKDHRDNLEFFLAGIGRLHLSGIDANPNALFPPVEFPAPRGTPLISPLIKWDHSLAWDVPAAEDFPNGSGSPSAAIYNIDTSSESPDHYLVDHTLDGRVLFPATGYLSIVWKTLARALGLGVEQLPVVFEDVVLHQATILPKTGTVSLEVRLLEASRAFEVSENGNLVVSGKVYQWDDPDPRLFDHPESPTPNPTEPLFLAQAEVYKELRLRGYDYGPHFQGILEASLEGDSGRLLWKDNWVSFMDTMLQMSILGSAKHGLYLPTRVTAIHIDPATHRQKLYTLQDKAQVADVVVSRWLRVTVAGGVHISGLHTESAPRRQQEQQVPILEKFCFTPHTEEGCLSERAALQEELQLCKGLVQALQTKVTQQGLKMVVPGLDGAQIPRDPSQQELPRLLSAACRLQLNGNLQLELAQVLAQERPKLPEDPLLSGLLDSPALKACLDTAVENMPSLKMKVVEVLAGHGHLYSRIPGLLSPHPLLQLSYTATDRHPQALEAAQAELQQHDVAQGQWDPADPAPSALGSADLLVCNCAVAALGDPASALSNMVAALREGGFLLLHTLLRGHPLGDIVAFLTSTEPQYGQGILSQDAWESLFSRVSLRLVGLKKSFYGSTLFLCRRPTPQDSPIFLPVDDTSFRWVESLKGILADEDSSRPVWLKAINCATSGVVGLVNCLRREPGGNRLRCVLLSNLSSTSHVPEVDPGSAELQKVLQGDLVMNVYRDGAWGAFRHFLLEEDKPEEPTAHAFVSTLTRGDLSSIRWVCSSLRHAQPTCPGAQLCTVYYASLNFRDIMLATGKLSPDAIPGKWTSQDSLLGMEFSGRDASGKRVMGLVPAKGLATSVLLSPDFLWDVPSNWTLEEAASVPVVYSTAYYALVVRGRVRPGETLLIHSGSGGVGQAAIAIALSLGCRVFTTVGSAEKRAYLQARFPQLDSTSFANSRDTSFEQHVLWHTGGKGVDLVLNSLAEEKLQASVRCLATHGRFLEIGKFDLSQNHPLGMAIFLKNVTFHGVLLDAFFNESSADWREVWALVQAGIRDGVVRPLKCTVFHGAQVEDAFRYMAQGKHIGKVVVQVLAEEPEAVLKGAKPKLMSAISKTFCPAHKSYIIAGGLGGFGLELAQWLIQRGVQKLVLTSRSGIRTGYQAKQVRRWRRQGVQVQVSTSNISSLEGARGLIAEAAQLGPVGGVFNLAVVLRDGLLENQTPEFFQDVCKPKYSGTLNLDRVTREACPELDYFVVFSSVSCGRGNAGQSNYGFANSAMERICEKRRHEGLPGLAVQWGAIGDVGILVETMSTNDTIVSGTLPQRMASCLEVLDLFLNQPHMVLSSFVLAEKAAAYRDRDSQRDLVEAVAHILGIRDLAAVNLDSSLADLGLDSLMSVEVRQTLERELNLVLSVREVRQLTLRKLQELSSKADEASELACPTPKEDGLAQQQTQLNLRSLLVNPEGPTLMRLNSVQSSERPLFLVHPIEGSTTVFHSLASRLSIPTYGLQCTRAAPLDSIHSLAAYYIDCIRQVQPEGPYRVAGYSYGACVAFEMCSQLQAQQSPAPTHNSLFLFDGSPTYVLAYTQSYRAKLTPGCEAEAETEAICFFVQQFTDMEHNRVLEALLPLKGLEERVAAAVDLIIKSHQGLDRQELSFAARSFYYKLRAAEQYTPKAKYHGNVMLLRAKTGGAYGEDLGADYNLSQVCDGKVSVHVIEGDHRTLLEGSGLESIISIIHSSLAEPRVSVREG
In assay [4] the target is Ras and Rab interactor 1/Tyrosine-protein kinase ABL1 (Homo sapiens, UniProt P00519+Q13671). It counts as functional.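 Note: biochemical TR-FRET dose-response test measuring inhibition of binding between Rin1 and Abl proteins.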
For assay [5], the target named is Tyrosyl-DNA phosphodiesterase 2 (Homo sapiens, UniProt O95551). The assay can be described thus: human TDP2 enzyme inhibitors, dose response, biochemical, epi absorbance, IC50 (AID 743297).
Chain of Tyrosyl-DNA phosphodiesterase 2 (O95551 whole entry): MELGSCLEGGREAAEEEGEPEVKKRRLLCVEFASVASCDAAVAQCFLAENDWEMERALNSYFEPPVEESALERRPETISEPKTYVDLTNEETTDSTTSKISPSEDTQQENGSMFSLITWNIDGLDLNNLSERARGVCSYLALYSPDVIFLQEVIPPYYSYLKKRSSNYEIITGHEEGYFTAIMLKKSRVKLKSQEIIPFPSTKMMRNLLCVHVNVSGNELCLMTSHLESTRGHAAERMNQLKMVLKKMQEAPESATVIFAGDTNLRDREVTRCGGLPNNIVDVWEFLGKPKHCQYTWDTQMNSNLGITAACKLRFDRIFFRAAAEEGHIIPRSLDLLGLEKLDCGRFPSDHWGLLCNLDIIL
For another assay, the target named is T4, Protein skinhead-1 (Caenorhabditis elegans, UniProt P34707).
T4 sequence (P34707 whole entry): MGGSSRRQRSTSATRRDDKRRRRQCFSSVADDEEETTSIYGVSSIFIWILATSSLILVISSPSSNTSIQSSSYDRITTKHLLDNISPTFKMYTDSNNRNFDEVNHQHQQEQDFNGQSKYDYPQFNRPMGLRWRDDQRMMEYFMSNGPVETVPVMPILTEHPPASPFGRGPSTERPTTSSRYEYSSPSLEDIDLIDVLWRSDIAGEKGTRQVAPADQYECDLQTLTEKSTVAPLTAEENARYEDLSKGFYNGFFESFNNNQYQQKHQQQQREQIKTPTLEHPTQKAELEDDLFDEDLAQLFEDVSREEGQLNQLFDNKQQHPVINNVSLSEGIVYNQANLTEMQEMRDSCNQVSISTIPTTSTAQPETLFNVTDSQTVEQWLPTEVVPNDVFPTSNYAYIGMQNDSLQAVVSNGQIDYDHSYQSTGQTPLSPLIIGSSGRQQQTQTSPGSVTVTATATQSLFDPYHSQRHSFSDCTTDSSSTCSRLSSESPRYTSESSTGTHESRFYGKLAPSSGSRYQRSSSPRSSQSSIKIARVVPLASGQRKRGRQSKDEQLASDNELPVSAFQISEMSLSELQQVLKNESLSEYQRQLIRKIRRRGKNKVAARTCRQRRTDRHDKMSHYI
In kind it is functional.

The target of assay [6] is Peroxisome proliferator-activated receptor gamma/Nuclear receptor coactivator 3 (Homo sapiens, UniProt P37231). In kind it is functional.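 Note: agonist potency for raising coactivator recruitment to the receptor.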
Chain of Peroxisome proliferator-activated receptor gamma/Nuclear receptor coactivator 3 (P37231 whole entry): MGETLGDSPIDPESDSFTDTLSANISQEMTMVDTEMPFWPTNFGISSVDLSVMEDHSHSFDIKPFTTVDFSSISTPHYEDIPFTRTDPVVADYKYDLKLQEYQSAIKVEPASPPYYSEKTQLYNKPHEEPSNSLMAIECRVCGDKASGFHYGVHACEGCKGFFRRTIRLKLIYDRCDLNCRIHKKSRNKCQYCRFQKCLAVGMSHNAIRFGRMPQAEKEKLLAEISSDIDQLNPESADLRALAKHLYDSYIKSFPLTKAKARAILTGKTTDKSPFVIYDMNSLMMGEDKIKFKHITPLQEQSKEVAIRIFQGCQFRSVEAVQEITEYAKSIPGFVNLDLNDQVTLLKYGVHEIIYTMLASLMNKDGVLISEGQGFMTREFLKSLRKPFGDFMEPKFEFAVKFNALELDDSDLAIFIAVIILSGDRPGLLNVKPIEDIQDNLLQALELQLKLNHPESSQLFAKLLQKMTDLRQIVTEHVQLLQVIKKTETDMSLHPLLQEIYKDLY
Chain of Peroxisome proliferator-activated receptor gamma/Nuclear receptor coactivator 3 (Q9Y6Q9 whole entry, further chain): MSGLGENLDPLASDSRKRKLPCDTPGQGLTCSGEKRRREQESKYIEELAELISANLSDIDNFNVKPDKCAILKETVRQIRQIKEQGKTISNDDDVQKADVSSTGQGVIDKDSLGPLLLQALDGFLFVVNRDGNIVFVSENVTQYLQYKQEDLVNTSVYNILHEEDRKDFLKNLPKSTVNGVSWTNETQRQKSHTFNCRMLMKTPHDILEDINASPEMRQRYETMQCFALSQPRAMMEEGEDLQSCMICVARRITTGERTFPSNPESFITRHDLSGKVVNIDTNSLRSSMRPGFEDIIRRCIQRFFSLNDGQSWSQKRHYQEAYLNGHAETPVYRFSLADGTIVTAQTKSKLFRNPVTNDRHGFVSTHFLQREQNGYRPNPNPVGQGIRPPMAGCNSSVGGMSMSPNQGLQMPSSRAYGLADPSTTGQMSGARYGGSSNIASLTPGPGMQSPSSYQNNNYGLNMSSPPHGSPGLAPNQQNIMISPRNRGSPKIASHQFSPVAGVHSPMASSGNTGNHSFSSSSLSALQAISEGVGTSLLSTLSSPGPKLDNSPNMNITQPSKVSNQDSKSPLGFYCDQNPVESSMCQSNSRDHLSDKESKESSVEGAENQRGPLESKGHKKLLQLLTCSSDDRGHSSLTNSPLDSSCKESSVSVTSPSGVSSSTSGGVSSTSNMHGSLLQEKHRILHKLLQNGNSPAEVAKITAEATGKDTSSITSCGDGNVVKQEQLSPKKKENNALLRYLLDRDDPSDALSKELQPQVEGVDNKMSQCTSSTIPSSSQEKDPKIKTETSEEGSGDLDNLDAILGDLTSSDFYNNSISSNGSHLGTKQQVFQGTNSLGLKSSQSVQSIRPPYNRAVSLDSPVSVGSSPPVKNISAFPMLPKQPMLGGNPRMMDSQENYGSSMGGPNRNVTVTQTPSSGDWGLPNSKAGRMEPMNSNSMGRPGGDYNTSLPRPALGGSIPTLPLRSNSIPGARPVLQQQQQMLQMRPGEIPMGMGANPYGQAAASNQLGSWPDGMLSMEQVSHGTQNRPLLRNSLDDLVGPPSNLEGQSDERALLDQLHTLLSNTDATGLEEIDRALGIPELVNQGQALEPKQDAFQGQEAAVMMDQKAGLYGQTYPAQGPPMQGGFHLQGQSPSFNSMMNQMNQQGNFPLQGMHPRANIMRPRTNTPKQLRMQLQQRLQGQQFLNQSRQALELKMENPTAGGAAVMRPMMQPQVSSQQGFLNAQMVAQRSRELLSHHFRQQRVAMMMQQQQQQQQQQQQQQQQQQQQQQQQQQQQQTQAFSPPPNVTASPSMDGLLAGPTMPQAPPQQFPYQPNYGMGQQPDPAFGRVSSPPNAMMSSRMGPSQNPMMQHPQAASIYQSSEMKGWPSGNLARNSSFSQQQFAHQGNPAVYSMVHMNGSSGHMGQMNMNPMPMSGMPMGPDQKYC
In assay [7] the target is Voltage-gated N-type calcium channel alpha-1B subunit/Amyloid beta A4 precursor protein-binding family A member 1 (Homo sapiens, UniProt Q00975+Q02410). In kind it is protein assay.
Assay [8] is described as follows: growth suppression of beta-catenin-knockout colon cells, dose response, cell-based, HCT116, human colon tumor (AID 1045).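 Note: HCT116 colon tumor cells with beta catenin knocked out; cells exposed to compound for 60 hours.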 In kind it is functional.
Assay [9] addresses T5, Mannose-6-phosphate isomerase (Homo sapiens, UniProt P34949).
T5 sequence (P34949 whole entry): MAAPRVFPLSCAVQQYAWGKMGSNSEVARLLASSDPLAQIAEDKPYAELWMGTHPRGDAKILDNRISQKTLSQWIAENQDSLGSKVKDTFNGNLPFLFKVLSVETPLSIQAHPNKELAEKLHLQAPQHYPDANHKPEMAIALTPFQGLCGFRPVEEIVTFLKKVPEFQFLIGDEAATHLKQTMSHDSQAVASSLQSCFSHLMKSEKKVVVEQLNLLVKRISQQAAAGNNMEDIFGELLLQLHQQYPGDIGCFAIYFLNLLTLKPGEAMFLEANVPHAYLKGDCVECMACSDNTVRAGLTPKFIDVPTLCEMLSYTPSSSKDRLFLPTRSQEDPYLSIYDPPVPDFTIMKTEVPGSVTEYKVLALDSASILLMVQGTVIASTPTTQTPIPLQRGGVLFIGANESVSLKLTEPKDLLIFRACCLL
The assay can be described thus: human PMI inhibitors, high substrate, primary screen, biochemical, fluorescence intensity, high mannose 6-phosphate (AID 1220).

Chain of Phospholipase A2 (P04054 whole entry): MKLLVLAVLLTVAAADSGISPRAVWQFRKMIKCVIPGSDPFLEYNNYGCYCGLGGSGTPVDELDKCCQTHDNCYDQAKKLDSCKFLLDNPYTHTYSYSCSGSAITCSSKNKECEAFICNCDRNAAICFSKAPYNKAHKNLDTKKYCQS

A word on the EC50: it is the midpoint of the concentration-response curve. As usually defined, the IC50 is the concentration needed to halve the response being measured. For `CCCCCCCCCCCCCCCCn1cc[n+](C)c1`, in [1], the concentration giving a half-maximal response (EC50) was > 300 µM (not active). Also, the results for the IC50 on Cysteine protease ATG4B and at Phospholipase A2 were 4.47 µM (active) and 5.78 µM (active), respectively.
In general, AC50 refers to the concentration at which the activity in the assay is half-maximal. For `O=C(Nc1ccccc1Cl)/C(Cl)=C(\Cl)[S+]([O-])c1ccccc1` (centres undefined), the concentration for a half-maximal effect (EC50) in assay [2] is 3.56 µM (active). Besides, the figures for the IC50 in the assay with CHO and on Fatty acid synthase were 1.18 µM (active) and 4.66 µM (active), respectively. The half-maximal activity concentration (AC50) in [3] was 10.8 µM (active).
Consider `O=C(NC1(O)C(=O)c2ccccc2C1=O)c1ccccc1`, for which the IC50 was 25.5 µM (inactive) in assay [4] and 3.27 µM (active) in [5].
With `Cc1ccc(C)c(S(=O)(=O)/N=C2\C=C(NS(=O)(=O)c3ccccc3)C(=O)c3ccccc32)c1`, the IC50 at Protein skinhead-1 is > 100 µM (inactive).
For the compound `Cc1cc(C)nc(/N=c2/ssnc2Cl)c1`, the values for the EC50 in assay [6] and in assay [8] were > 79.4 µM (not active) and 25.8 µM (active), respectively. The IC50 in assay [7] is 10.6 µM (active); in [9], 28.8 µM (active).
